Laboratory results: article PMC11783601, “Analogue-Sensitive Inhibition of Histone Demethylases Uncovers Member-Specific Function in Ribosomal Protein Synthesis” (Journal of the American Chemical Society, 2025)

Molecular target: T1, asKDM4A (HA-tagged F185A) in HEK293T cells (Homo sapiens, UniProt O75164, F185A)
T1 construct: we generated the F185A mutation in full-length KDM4A carrying all of the functional domains; host or cells: HEK293T
T1 sequence (O75164 1-1064 F185A): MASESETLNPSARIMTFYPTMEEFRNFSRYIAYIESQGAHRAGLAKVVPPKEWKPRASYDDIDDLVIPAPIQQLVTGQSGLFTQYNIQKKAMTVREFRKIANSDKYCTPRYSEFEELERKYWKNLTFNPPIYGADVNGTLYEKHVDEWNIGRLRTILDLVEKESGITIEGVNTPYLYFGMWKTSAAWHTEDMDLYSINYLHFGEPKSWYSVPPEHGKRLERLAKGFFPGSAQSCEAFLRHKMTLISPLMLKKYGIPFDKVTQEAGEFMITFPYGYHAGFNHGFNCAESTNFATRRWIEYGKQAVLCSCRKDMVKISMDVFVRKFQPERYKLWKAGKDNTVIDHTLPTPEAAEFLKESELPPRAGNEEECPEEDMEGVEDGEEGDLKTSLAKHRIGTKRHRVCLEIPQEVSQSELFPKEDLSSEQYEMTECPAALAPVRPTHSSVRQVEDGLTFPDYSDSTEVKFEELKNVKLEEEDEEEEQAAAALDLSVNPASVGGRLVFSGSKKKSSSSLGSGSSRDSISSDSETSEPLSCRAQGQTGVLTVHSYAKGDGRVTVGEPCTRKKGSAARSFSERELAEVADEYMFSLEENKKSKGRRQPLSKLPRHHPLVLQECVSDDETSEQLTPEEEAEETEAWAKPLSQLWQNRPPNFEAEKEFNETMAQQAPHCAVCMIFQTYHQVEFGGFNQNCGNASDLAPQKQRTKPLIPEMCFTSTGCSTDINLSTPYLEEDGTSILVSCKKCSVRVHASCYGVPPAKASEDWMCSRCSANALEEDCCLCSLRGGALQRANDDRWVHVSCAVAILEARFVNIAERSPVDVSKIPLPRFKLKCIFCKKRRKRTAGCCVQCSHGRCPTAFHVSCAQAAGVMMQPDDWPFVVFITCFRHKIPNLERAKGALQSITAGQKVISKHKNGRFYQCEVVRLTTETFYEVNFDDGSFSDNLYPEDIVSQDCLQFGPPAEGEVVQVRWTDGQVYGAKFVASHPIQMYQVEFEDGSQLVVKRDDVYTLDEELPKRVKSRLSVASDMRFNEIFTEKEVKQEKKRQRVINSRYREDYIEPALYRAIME
Test: Time-dependent treatment and withdrawal of inhibitor, fixed cell imaging of H3K9me3 and BrdU
Assay type: cell-based
Protocol: We exploited the reversible mode of action of the allele-specific inhibitor to gain further insights into the temporal regulation of rRNA expression by histone demethylation. We reasoned that withdrawal of the reversible inhibitor from the cell-culture medium would restore the activity of asKDM4A in a temporally defined manner (Figure 8A). HEK293T cells expressing the F185A variant carrying an HA tag were treated with 6B and fixed at various time points. H3K9me3 levels were quantified in HA-positive cells to ensure that only cells with asKDM4A were considered for analysis. Within 3 h of compound treatment, a robust level of H3K9me3 ensued (Figure 8B). Subsequently, the same cells were allowed to grow in inhibitor-free media and examined for histone demethylation by fixed cell imaging.
To investigate if the restoration of H3K9me3 demethylation is directly linked to rRNA activation, cells overexpressing asKDM4A were first treated with 6B for 3 h followed by compound removal and brief exposure to 5FU before being fixed at different time points for immunofluorescence imaging (Figure 8A,C). […] We recorded a steady recovery of BrdU signal, reaching its maximum within 4–5 h postwithdrawal (equivalent to no 6B treatment) (Figure 8C), consistent with reactivation of asKDM4A as observed above. A relatively sluggish 5FU incorporation into rRNA (Figure 8C), compared to the rapid histone demethylation (Figure 8B), is likely due to the time required to assemble active transcriptional machinery at the rRNA promoters following the removal of the silencing H3K9me3 mark. Achieving such precise temporal control of protein function would be challenging using genetic tools. Collectively, employing the mutant and cognate inhibitor pair, we mapped a highly dynamic signaling pathway linking KDM4A-mediated locus-specific histone demethylation with upregulation of rRNA expression to modulate downstream processes such as ribosomal assembly and protein synthesis. […]
19. Fixed cell immunofluorescence staining
Cells were grown on poly-D-lysine (Gibco A3890401) treated glass coverslips (ThermoScientific 12-545-81P) overnight and transfected the next day with 300 ng KDM4A WT/F185A using […] of lipofectamine 2000 (Invitrogen 11668019). The cells were incubated overnight and treated with indicated inhibitor at varying time points. When probing rRNA transcription, cells were incubated with 2 mM 5-Fluorouridine (Sigma F5130) for 15 minutes. Cells were washed three times with phosphate buffered saline (PBS) at pH 7.6 (Corning 21040CV), fixed with 2% paraformaldehyde in PBS (ThermoFisher AAJ19943K2) for 15 minutes at room temperature, washed with PBS three times, and permeabilized with 0.1% tritonX (Fisher BP151-100) in PBS for 15 minutes. Next, coverslips were blocked with 2% Bovine Serum Albumin (BSA Fisher BP1600-100) in PBS for 1 hour at room temperature, coverslips were incubated with primary antibody diluted in 0.5% BSA PBS (anti-H3K9me3: Cell Signaling Technology cat: 13969S host:rabbit 1:1000; anti-HA: Cell Signaling Technology host:mouse, cat: 2367S or host:rabbit, cat: […]
hour at room temperature, then incubated with secondary antibodies diluted in 0.5% BSA PBS (anti-mouse—488: Invitrogen host: goat, cat: A-11001 or anti-rabbit—cy3: Invitrogen host: goat, […]
cat: A10520, both dilutions 1:1000), between each step coverslips were washed five times with 0.5% BSA PBS. The nuclei were stained with Hoechst stain 0.01 mg/mL in H2O (Sigma B2883-25MG) for 30 seconds, washed with PBS and finally adhered to a slide with gelvatol. The cells were imaged at University of Pittsburgh Center for Biological Imaging on an Olympus Fluoview […]
20. Quantification of fixed-cell imaging data
TIF images obtained from confocal microscopy experiments were quantified in ImageJ. Images were converted to 8-bit images and then thresholded to remove background signal. All images within the same experiment used the same threshold values. For concentration dependent imaging […]

[1] = HEK293T cells expressing KDM4A-F185A, 6B for 3 h then withdrawal

time of compound treatment until a robust level of H3K9me3 ensued (HA-positive HEK293T cells expressing F185A): up to 3 h
5FU incorporation after compound withdrawal [1]: gradual increase in 5FU incorporation
H3K9me3 after compound withdrawal [1]: rapid H3K9me3 demethylation
time postwithdrawal until BrdU signal reached its maximum (after 3 h 6B treatment and removal, equivalent to no 6B treatment): 4 to 5 h
BrdU signal (5FU incorporation) (cells overexpressing asKDM4A treated with 6B for 3 h): significant decrease in BrdU signal
time after compound removal until asKDM4A regained its demethylase activity (inhibitor-free media, activity increased for up to 3 h): ≤ 1 h
SMILES: CC(C)CC(NC(=O)C(=O)OCc1cccc(C(F)(F)F)c1)C(=O)O [6B, L-Leu TFMB-ester NOG]
